Data set [1] in a line: Physical stability of the salts (storage at elevated temperature and relative humidity, re-analysis by XRPD). Particulars: for Form after stability / Physical stability: solids exposed for 2 or 3 weeks at 40° C. and 70-80% relative humidity; for Form after stability: XRPD; for Physical stability: re-analyzed by XRPD. It counts as physicochemical. The protocol:
XRPD measurements were performed with the X-ray powder diffractometer Bruker D8 Advance at room temperature, using a copper filled X-ray tube (40 kV×40 mA) as the X-ray source, CuKα (λ=1.5418 Å), a 0.6 mm divergence slit, 2.5° Soller slits on both the primary and secondary beams and the 1-dimensional LynxEye detector (with aperture angle of 2.91593°). Data collection was done in the range of 3.8-33° 2θ with 0.02° increments, at a scan speed of 0.3°/s.
A stability test was carried out for all crystalline salt forms resulted from the salt screen by exposing the solids for 2 or 3 weeks at 40° C. and 70-80% relative humidity. After exposure, the solids were re-analyzed by XRPD, followed by physical stability assessment.

The nature of data set [2]: Chemical stability of the salts (stress at 60° C. and 75% relative humidity, purity by UHPLC). It counts as physicochemical. Particulars: for Purity (%) of 1 day stress samples / Difference between reference and 1 day stressed sample: 1 day at 60° C. and 75% relative humidity; for Purity (%) of 1 day stress samples / Purity (%) of 14 day stress samples / Purity (%) of reference: UHPLC; for Difference between reference and 1 day stressed sample / Difference between reference and 14 day stressed sample: purity difference, in %; for Purity (%) of 14 day stress samples / Difference between reference and 14 day stressed sample: 14 days at 60° C. and 75% relative humidity; for Purity (%) of reference: unstressed sample; for Chemical stability (in words): summary statement. On the procedure: The purity analyses were performed using Agilent UHPLC equipment with PDA/DAD detector at 210 nm wavelength and reverse phase liquid chromatography column Acquity UPLC HSS T3, 100×3.0 mm, 1.8 μm (Waters). The chromatography was performed with gradient run using acetonitrile and phosphate buffer (pH 3.0) as eluents.
The chemical stability of various salts of compound (I) was determined by stressing the salts for 1 and 14 days at 60° C. and 75% relative humidity. The unstressed sample was used as an reference. The purity of the samples were analyzed using UHPLC, and the purity difference between the stressed and reference was calculated.

[3] abbreviates: listed as 1-Hydroxy-2-naphtoic acid salt.

Where a name gives a salt, the structure may show the parent alone.

For `COc1cccc2c1CCOC2C1=NCCN1` (racemic) [D,L-Lactic acid salt Form 1, 2-(5-methoxyisochroman-1-yl)-4,5-dihydro-1H-imidazole], in data set [1], the Form after stability result was “Form 2” and the Physical stability entry was “Unstable”. Also, the Form after stability result in data set [1] (listed as D,L-lactic acid) is reported as “completely”.
As for `COc1cccc2c1CCOC2C1=NCCN1` [L-tartaric acid salt Form 1, 2-(5-methoxyisochroman-1-yl)-4,5-dihydro-1H-imidazole], in data set [2], the “Purity (%) of 1 day stress samples” value was found to be 97.9%; the “Difference between reference and 1 day stressed sample” value is listed as 1.0; the “Purity (%) of 14 day stress samples” value was determined as 90.3%; the “Difference between reference and 14 day stressed sample” value is reported as 8.7. Also, the “Purity (%) of reference” value in data set [2] turned out to be 99.0%. In data set [1], the Form after stability result was “Form 1” and the Physical stability result was “Stable”. In data set [1] (listed as L-tartaric acid (form 1)), the Physical stability entry was “remained stable”.
In the case of `COc1cccc2c1CCOC2C1=NCCN1` (stereo not drawn) [Glycolic acid salt Form 1, 2-(5-methoxyisochroman-1-yl)-4,5-dihydro-1H-imidazole], in data set [2], the “Purity (%) of 1 day stress samples” value stood at 99.3%; the “Difference between reference and 1 day stressed sample” value is reported as 0.5; the “Purity (%) of 14 day stress samples” value is 17.6%; the “Difference between reference and 14 day stressed sample” value was determined as 82.2. Moreover, the “Purity (%) of reference” value in data set [2] came out at 99.8%. Besides, in data set [1], the Form after stability entry was “Form 1” and the Physical stability result is listed as “Stable”. Moreover, in data set [1] (listed as glycolic acid), the Physical stability entry is listed as “remained stable”.
Regarding `COc1cccc2c1CCOC2C1=NCCN1` (stereo not drawn) [Oxalic acid salt Form 1, 2-(5-methoxyisochroman-1-yl)-4,5-dihydro-1H-imidazole], in data set [2], the “Purity (%) of 1 day stress samples” value was found to be 97.9%; the “Difference between reference and 1 day stressed sample” value is −0.2; the “Purity (%) of 14 day stress samples” value was found to be 97.9%; the “Difference between reference and 14 day stressed sample” value is given as −0.2. In addition, in data set [2], the “Chemical stability (in words)” value is listed as “good chemical stability” and the “Purity (%) of reference” value was determined as 97.7%. For the same compound, in data set [1], the Form after stability entry was “Form 1” and the Physical stability entry is “Stable”. The Physical stability entry in data set [1] (listed as oxalic acid) was “remained stable”.
On to `COc1cccc2c1CCOC2C1=NCCN1` (stereo not drawn) [Ethane-1,2-disulfonic acid salt Form 1, 2-(5-methoxyisochroman-1-yl)-4,5-dihydro-1H-imidazole], for which, in data set [2], the “Purity (%) of 1 day stress samples” value turned out to be 99.8%; the “Difference between reference and 1 day stressed sample” value is recorded as 0.0; the “Purity (%) of 14 day stress samples” value stood at 99.8%; the “Difference between reference and 14 day stressed sample” value was determined as 0.0. Further, in data set [2], the “Chemical stability (in words)” value is “good chemical stability” and the “Purity (%) of reference” value worked out at 99.8%. For the same compound, in data set [1], the Form after stability entry is “Form 1” and the Physical stability entry was “Stable”. In addition, the Physical stability result in data set [1] (listed as ethane-1,2-disulfonic acid) is “remained stable”.
Take `COc1cccc2c1CCOC2C1=NCCN1` (stereo not drawn) [1-Hydroxy-2-napthoic acid salt Form 1, 2-(5-methoxyisochroman-1-yl)-4,5-dihydro-1H-imidazole]: in data set [2] (setting [3]), the “Purity (%) of 1 day stress samples” value is given as 95.4%; the “Difference between reference and 1 day stressed sample” value is listed as 3.5; the “Purity (%) of 14 day stress samples” value is on record as 0.6%; the “Difference between reference and 14 day stressed sample” value amounted to 98.3. Besides, the “Purity (%) of reference” value in data set [2] (setting [3]) came to 98.9%. Further, in data set [1], the Form after stability result was “Form 1” and the Physical stability entry is reported as “Stable”. In data set [1] (listed as 1-hydroxy-2-napthoic acid), the Physical stability entry is “remained stable”.
Take `COc1cccc2c1CCOC2C1=NCCN1` (stereo not drawn) [Fumaric acid salt Form 2, 2-(5-methoxyisochroman-1-yl)-4,5-dihydro-1H-imidazole]: in data set [2], the “Purity (%) of 1 day stress samples” value was determined as 97.6%; the “Difference between reference and 1 day stressed sample” value is listed as −0.3; the “Purity (%) of 14 day stress samples” value is on record as 98.0%; the “Difference between reference and 14 day stressed sample” value was −0.8. Besides, the “Purity (%) of reference” value in data set [2] is listed as 97.2%. Moreover, in data set [1], the Form after stability result is “Form 2” and the Physical stability entry is recorded as “Stable”. In addition, the Physical stability result in data set [1] (listed as fumaric acid (form 2)) is given as “remained stable”.
On to `COc1cccc2c1CCOC2C1=NCCN1` (stereo not drawn) [Cyclamic acid salt Form 1, 2-(5-methoxyisochroman-1-yl)-4,5-dihydro-1H-imidazole], for which the Form after stability result is given as “Form 2” in data set [1] and “completely” in data set [1] (listed as cyclamic acid (form 1)). In addition, the Physical stability result in data set [1] is “Unstable”.
In the case of `COc1cccc2c1CCOC2C1=NCCN1` (stereo not drawn) [Methanesulfonic acid salt Form 1, 2-(5-methoxyisochroman-1-yl)-4,5-dihydro-1H-imidazole], in data set [1], the Form after stability result is given as “Amorphous” and the Physical stability entry is “Unstable”. For the same compound, the Form after stability result in data set [1] (listed as methanesulfonic acid) is on record as “turned into amorphous phase”.
Consider `COc1cccc2c1CCOC2C1=NCCN1` (stereo not drawn) [2-Ketoglutaric acid salt Form 1, 2-(5-methoxyisochroman-1-yl)-4,5-dihydro-1H-imidazole], for which the Form after stability result was “Amorphous” in data set [1] and “turned into amorphous phase” in data set [1] (listed as 2-ketoglutaric acid). The Physical stability result in data set [1] is on record as “Unstable”.
Take `COc1cccc2c1CCOC2C1=NCCN1` [L-Aspartic acid salt Form 1, 2-(5-methoxyisochroman-1-yl)-4,5-dihydro-1H-imidazole]: the Form after stability entry in data set [1] is “Form 1 + amorphous”; in data set [1] (listed as L-aspartic acid), “an amorphous phase with characteristic peaks of the counter-ion”. Besides, the Physical stability result in data set [1] is “Unstable”.
Turning to `COc1cccc2c1CCOC2C1=NCCN1` (stereo not drawn) [Cyclamic acid salt Form 2, 2-(5-methoxyisochroman-1-yl)-4,5-dihydro-1H-imidazole], the Form after stability result in data set [1] (listed as cyclamic acid (form 2)) was “extra peaks in the XRPD pattern”.
Take `COc1cccc2c1CCOC2C1=NCCN1` (stereo not drawn) [Fumaric acid salt Form 1, 2-(5-methoxyisochroman-1-yl)-4,5-dihydro-1H-imidazole]: the Form after stability entry in data set [1] is “Form 1”. Moreover, the Physical stability result in data set [1] is recorded as “Stable”; in data set [1] (listed as fumaric acid (form 1)) it was “remained stable”.
Consider `COc1cccc2c1CCOC2C1=NCCN1` (stereo not drawn) [Saccharin salt, 2-(5-methoxyisochroman-1-yl)-4,5-dihydro-1H-imidazole], for which, in data set [2], the “Purity (%) of 1 day stress samples” value was determined as 95.0%; the “Difference between reference and 1 day stressed sample” value came to 2.1; the “Purity (%) of 14 day stress samples” value is given as 91.5%; the “Difference between reference and 14 day stressed sample” value was found to be 5.6. In data set [2], the “Purity (%) of reference” value was found to be 97.1%.
As to `COc1cccc2c1CCOC2C1=NCCN1` [L-Glutamic acid salt Form 1, 2-(5-methoxyisochroman-1-yl)-4,5-dihydro-1H-imidazole], in data set [1], the Form after stability result is reported as “extra peaks in the XRPD pattern”.
`COc1cccc2c1CCOC2C1=NCCN1` (stereo not drawn) [Saccharin salt Form 1, 2-(5-methoxyisochroman-1-yl)-4,5-dihydro-1H-imidazole]: the “Crystalline form conversion on storage” value in data set [1] (40° C., 75% RH for 3 weeks) is recorded as “partially conversion into form 2”. Besides, the values for the Form after stability entry in data set [1] and in data set [1] (listed as saccharin (form 1)) were “Form 1 + Form 2” and “changed partially”, respectively.
`COc1cccc2c1CCOC2C1=NCCN1` (stereo not drawn) [Saccharin salt Form 2, 2-(5-methoxyisochroman-1-yl)-4,5-dihydro-1H-imidazole]: in data set [1], the Form after stability result is “Form 2” and the Physical stability entry is on record as “Stable”. The Physical stability result in data set [1] (listed as saccharin (form 2)) is “remained stable”.

The record behind these values is patent US20250136583A1, “NOVEL SALT FORMS OF ISOCHROMAN-IMIDAZOLE STRUCTURED ALPHA-2A ADRENOCEPTOR AGONIST” (ORION CORPORATION, priority 2022, published 2025).
